Tests used:
[1] = target: Human norepinephrine transporter (NET) (Homo sapiens, UniProt P23975); experiment: Binding assay to human norepinephrine transporter (NET), [3H]-Nisoxetin; details: human NET enriched membranes, 5 nM [3H]-Nisoxetin
Method: Binding Assay to Human Norepinephrine Transporter (NET).
Human norepinephrine transporter (NET) enriched membranes (5 μg) were incubated with 5 nM of radiolabeled [3H]-Nisoxetin in assay buffer containing 50 mM Tris-HCl, 120 mM NaCl, 5 mM KCl, pH 7.4.
NSB (non specific binding) was measured by adding 1 μM. After 60 min incubation at 4° C., binding reaction was terminated by filtering through Multiscreen GF/C (Millipore) presoaked in 0.5% polyethyleneimine in Vacuum Manifold Station, followed by 3 washes with ice-cold filtration buffer containing 50 mM Tris-HCl, 0.9% NaCl, pH 7.4.
Filter plates were dried at 60° C. for 1 hour and 30 μL of scintillation cocktail were added to each well before radioactivity reading.
Readings were performed in a Trilux 1450 Microbeta radioactive counter (Perkin Elmer).

[2] = target: Human α2δ-1 subunit of Cav2.2 calcium channel (Homo sapiens, UniProt P54289); experiment: Human α2δ-1 subunit of Cav2.2 calcium channel assay, [3H]-Gabapentin binding; details: human α2δ-1 enriched membranes, 15 nM [3H]-Gabapentin
Method: Human α2δ-1 Subunit of Cav2.2 Calcium Channel Assay
Human α2δ-1 enriched membranes (2.5 μg) were incubated with 15 nM of radiolabeled [3H]-Gabapentin in assay buffer containing Hepes-KOH 10 mM, pH 7.4. NSB (non specific binding) was measured by adding 10 μM pregabalin. After 60 min incubation at 27° C., binding reaction was terminated by filtering through Multiscreen GF/C (Millipore) presoaked in 0.5% polyethyleneimine in Vacuum Manifold Station, followed by 3 washes with ice-cold filtration buffer containing 50 mM Tris-HCl, pH 7.4. Filter plates were dried at 60° C. for 1 hour and 30 μL of scintillation cocktail were added to each well before radioactivity reading. Readings were performed in a Trilux 1450 Microbeta radioactive counter (Perkin Elmer).

Human α2δ-1 subunit of Cav2.2 calcium channel, sequence (P54289 25-1103): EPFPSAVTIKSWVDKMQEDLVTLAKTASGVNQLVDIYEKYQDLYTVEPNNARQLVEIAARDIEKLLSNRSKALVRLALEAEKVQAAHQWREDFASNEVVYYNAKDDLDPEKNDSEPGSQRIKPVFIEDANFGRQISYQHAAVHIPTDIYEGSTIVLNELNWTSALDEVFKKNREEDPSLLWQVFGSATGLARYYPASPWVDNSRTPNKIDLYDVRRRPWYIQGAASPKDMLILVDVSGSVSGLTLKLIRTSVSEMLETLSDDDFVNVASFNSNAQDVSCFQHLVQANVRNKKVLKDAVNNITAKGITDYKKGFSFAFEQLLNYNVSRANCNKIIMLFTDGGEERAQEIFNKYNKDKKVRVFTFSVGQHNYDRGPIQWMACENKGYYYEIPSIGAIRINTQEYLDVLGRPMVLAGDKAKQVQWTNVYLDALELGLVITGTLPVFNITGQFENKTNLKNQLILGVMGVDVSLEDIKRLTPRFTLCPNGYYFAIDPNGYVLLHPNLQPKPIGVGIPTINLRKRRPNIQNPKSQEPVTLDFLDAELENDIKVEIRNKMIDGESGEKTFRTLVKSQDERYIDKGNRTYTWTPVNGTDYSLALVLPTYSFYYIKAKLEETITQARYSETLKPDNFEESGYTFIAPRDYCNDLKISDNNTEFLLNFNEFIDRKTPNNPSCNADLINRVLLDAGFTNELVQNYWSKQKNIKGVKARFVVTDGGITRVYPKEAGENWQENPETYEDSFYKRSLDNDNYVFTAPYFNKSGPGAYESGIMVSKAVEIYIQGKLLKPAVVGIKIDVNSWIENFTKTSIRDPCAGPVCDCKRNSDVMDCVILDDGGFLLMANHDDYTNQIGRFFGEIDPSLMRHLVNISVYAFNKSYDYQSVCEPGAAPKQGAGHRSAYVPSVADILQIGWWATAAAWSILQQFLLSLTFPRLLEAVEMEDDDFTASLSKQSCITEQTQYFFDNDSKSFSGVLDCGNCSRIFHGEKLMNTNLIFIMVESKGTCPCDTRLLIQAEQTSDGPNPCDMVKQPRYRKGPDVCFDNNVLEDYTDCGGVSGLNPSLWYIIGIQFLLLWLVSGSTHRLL
Human norepinephrine transporter (NET), sequence (P23975 whole entry): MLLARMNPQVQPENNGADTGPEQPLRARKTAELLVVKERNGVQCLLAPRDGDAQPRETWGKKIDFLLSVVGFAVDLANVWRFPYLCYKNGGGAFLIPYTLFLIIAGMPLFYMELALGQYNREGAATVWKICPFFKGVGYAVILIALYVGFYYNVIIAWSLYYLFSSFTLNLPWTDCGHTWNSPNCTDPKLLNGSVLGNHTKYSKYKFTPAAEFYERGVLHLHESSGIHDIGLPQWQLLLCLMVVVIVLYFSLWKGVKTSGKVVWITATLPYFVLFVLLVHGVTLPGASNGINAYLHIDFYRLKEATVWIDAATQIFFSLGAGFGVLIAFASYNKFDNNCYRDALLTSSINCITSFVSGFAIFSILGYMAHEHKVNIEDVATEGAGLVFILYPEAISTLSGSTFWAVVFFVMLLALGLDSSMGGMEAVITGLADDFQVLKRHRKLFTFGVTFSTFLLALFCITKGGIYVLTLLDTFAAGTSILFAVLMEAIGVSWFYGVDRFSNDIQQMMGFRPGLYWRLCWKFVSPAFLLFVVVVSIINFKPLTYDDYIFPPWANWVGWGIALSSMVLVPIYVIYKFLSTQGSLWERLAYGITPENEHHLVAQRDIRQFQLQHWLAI

Row | Compound | Ki [1] [µM] | Ki [2] [µM]
1 | CNCCC(Oc1cccc(-c2ccc(C)nn2)c1)c1ccccc1 (centres unmarked) [Example 3, N-methyl-3-(3-(6-methylpyridazin-3-yl)phenoxy)-3-phenylpropan-1-amine] | 0.5 to 1 | ≥ 5
2 | CNCCC(Oc1cccc(-c2ccncn2)c1)c1ccccc1 (centres unmarked) [Example 4, N-methyl-3-phenyl-3-(3-(pyrimidin-4-yl)phenoxy)propan-1-amine] | 0.5 to 1 | 0.5 to 5
3 | CNCC[C@@H](Oc1cccc(-c2ccnc(C)n2)c1)c1ccccc1 [Example 7, (R)—N-methyl-3-(3-(2-methylpyrimidin-4-yl)phenoxy)-3-phenylpropan-1-amine] | 0.5 to 1 | 0.5 to 5
4 | CNCCC(Oc1cccc(-c2cnc(OC)nc2)c1)c1cccs1 (centres unmarked) [Example 18, 3-(3-(2-methoxypyrimidin-5-yl)phenoxy)-N-methyl-3-(thiophen-2-yl)propan-1-amine] | ≥ 1 | 0.5 to 5
5 | CNCCC(Oc1cccc(-c2cnc(C)nc2)c1)c1cccs1 (centres unmarked) [Example 23, N-methyl-3-(3-(2-methylpyrimidin-5-yl)phenoxy)-3-(thiophen-2-yl)propan-1-amine] | ≥ 1 | 0.5 to 5
6 | CNCCC(Oc1cccc(-c2ccncc2C)c1)c1cccs1 (centres unmarked) [Example 24, N-methyl-3-(3-(3-methylpyridin-4-yl)phenoxy)-3-(thiophen-2-yl)propan-1-amine] | 0.5 to 1 | 0.5 to 5
7 | CNCC[C@H](Oc1cccc(-c2ccnc(N3CCNCC3)n2)c1)c1ccccc1 [Example 28, (S)—N-Methyl-3-phenyl-3-(3-(2-(piperazin-1-yl)pyrimidin-4-yl)phenoxy)propan-1-amine] | ≥ 1 | 0.5 to 5
8 | CNCC[C@H](Oc1cccc(-c2ccnc(N3CCN(C)CC3)n2)c1)c1ccccc1 [Example 31, (S)—N-methyl-3-(3-(2-(4-methylpiperazin-1-yl)pyrimidin-4-yl)phenoxy)-3-phenylpropan-1-amine] | ≥ 1 | 0.5 to 5
9 | CNCCNc1nccc(-c2cccc(O[C@@H](CCNC)c3ccccc3)c2)n1 [Example 32, (S)—N1-methyl-N2-(4-(3-(3-(methylamino)-1-phenylpropoxy)phenyl)pyrimidin-2-yl)ethane-1,2-diamine] | ≥ 1 | 0.5 to 5
10 | CNCC[C@@H](Oc1cccc(-c2ccnc(N[C@@H]3CCNC3)n2)c1)c1ccccc1 [Example 33, 4-(3-((R)-3-(methylamino)-1-phenylpropoxy)phenyl)-N—((R)-pyrrolidin-3-yl)pyrimidin-2-amine] | ≥ 1 | 0.5 to 5
11 | CNCC[C@@H](Oc1cccc(-c2ccnc(N[C@H]3CCNC3)n2)c1)c1ccccc1 [Example 34, 4-(3-((R)-3-(methylamino)-1-phenylpropoxy)phenyl)-N—((S)-pyrrolidin-3-yl)pyrimidin-2-amine] | 0.5 to 1 | 0.5 to 5
12 | CNCC[C@H](Oc1cccc(-c2ccnc(N[C@@H]3CCNC3)n2)c1)c1ccccc1 [Example 36, 4-(3-((S)-3-(methylamino)-1-phenylpropoxy)phenyl)-N—((R)-pyrrolidin-3-yl)pyrimidin-2-amine] | 0.5 to 1 | 0.5 to 5

Now from value to molecule:

Row | Ki [1] [µM] | Ki [2] [µM] | Compound
13 | < 0.1 | 0.5 to 5 | CNCCC(Oc1cccc(-c2ccnc(OC)n2)c1)c1ccccc1 (centres unmarked) [Example 1, 3-(3-(2-Methoxypyrimidin-4-yl)phenoxy)-N-methyl-3-phenylpropan-1-amine]
14 | 0.1 to 0.5 | 0.5 to 5 | CNCCC(Oc1cccc(-c2ccnc(C)n2)c1)c1ccccc1 (centres unmarked) [Example 2, N-methyl-3-(3-(2-methylpyrimidin-4-yl)phenoxy)-3-phenylpropan-1-amine]
15 | < 0.1 | 0.5 to 5 | CNCC[C@H](Oc1cccc(-c2ccnc(SC)n2)c1)c1ccccc1 [Example 5, (S)—N-methyl-3-(3-(2-(methylthio)pyrimidin-4-yl)phenoxy)-3-phenylpropan-1-amine]
16 | 0.1 to 0.5 | 0.5 to 5 | CNCC[C@H](Oc1cccc(-c2ccnc(C)n2)c1)c1ccccc1 [Example 6, (S)—N-methyl-3-(3-(2-methylpyrimidin-4-yl)phenoxy)-3-phenylpropan-1-amine]
17 | < 0.1 | 0.5 to 5 | CNCC[C@@H](Oc1cccc(-c2ccnc(SC)n2)c1)c1ccccc1 [Example 8, (R)—N-methyl-3-(3-(2-(methylthio)pyrimidin-4-yl)phenoxy)-3-phenylpropan-1-amine]
18 | 0.1 to 0.5 | 0.5 to 5 | CNCC[C@H](Oc1cccc(-c2ccnc(N)n2)c1)c1ccccc1 [Example 10, (S)-4-(3-(3-(methylamino)-1-phenylpropoxy)phenyl)pyrimidin-2-amine]
19 | 0.1 to 0.5 | < 0.5 | CNCCC(Oc1cccc(-c2ccnc(C)c2)c1)c1cccs1 (centres unmarked) [Example 19, N-methyl-3-(3-(2-methylpyridin-4-yl)phenoxy)-3-(thiophen-2-yl)propan-1-amine]
20 | 0.1 to 0.5 | 0.5 to 5 | CNCCC(Oc1cccc(-c2ccnc(C(F)(F)F)c2)c1)c1cccs1 (centres unmarked) [Example 22, N-methyl-3-(thiophen-2-yl)-3-(3-(2-(trifluoromethyl)pyridin-4-yl)phenoxy)propan-1-amine]
21 | 0.1 to 0.5 | 0.5 to 5 | CNCCC(Oc1cccc(-c2cc(C)nc(C)c2)c1)c1cccs1 (centres unmarked) [Example 26, 3-(3-(2,6-dimethylpyridin-4-yl)phenoxy)-N-methyl-3-(thiophen-2-yl)propan-1-amine]
22 | 0.1 to 0.5 | 0.5 to 5 | CNCCC(Oc1cccc(-c2ccncc2)c1)c1cccs1 (centres unmarked) [Example 27, N-methyl-3-(3-(pyridin-4-yl)phenoxy)-3-(thiophen-2-yl)propan-1-amine]
23 | 0.1 to 0.5 | 0.5 to 5 | CCNc1nccc(-c2cccc(O[C@@H](CCNC)c3ccccc3)c2)n1 [Example 29, (S)—N-ethyl-4-(3-(3-(methylamino)-1-phenylpropoxy)phenyl)pyrimidin-2-amine]
24 | < 0.1 | ≥ 5 | CNCC[C@H](Oc1cccc(-c2ccnc(NC)n2)c1)c1ccccc1 [Example 30, (S)—N-methyl-4-(3-(3-(methylamino)-1-phenylpropoxy)phenyl)pyrimidin-2-amine]
25 | < 0.1 | ≥ 5 | CNCC[C@H](Oc1cccc(-c2ccnc(N(C)C)n2)c1)c1ccccc1 [Example 35, (S)—N,N-dimethyl-4-(3-(3-(methylamino)-1-phenylpropoxy)phenyl)pyrimidin-2-amine]
